Reference: US20240398709A1, “DRY POWDER FOAMABLE FORMULATIONS FOR DELIVERY OF MEDICAMENTS THROUGH THE MUCOSA” (priority 2021, published 2024)

Assays:
mucositis = assay: Amifostine oral rinse in a patient subject to chemotherapy (prevention/treatment of mucositis); format: in vivo, human; conditions: for safety of administration: 200 mg WR-2721 (10 ml 0.09 M) or 125 mg WR-1065 (10 ml 0.09 M)
Method: In this example, a patient is subject to chemotherapy as part of a treatment plan for head and neck cancer. The patient presents multiple squamous cell carcinoma tumors in the throat and larynx. The patient is administered amifostine for use after each chemotherapy session (e.g., for oral rinse within 15 minutes to two hours after chemotherapy).
The amifostine is administered to the patient in the formulation described above (Table 2). […] The patient rinses for approximately one minute and thereafter, expels/discards the rinse. The rinse process can be repeated.

[1] = cited from earlier work
[2] = system: epirubicin-induced oral mucositis; conditions: patients with epirubicin-induced oral mucositis; cited from earlier work
[3] = following intravenous administration; cited from earlier work
[4] = after amifostine injection; animal study; cited from earlier work
mouth mucosa cells = assay: Uptake of drug / WR-1065 into mouth mucosa cells after oral rinse; format: in vivo, human
Method: Specifically, 125 mg of amifostine is provided as an oral rinse. The patient rinses for approximately one minute and thereafter, expels/discards the rinse. The rinse process can be repeated.

Row | Compound | safety of administration (mucositis) | pH of maximal rate of hydrolysis ([1]; hydrolysis of amifostine to WR-1065 and inorganic phosphate) | hydrolysis at neutral pH ([1]; over four hours at room temperature) | stability at gastric pH ([1]; pH from 1 to 3) | difference between patients given amifostine oral rinse and control [2] | clearance from the plasma [3] | systemic side-effects (mucositis; oral rinse) | tolerability (mucositis; oral rinse) | time of maximum tissue concentrations of WR-1065 [4] | WR-1065 concentration in washed, isolated, vital mouth mucosa cells (mouth mucosa cells)
1 | NCCCNCCSP(=O)(O)O [amifostine, S-2-(3-aminopropylamino) ethyl dihydrogen phosphorothioate] | can be safely administered | 3.0 | no detectable hydrolysis | unstable | no significant difference | rapidly cleared | – | – | – | –
2 | NCCCNCCS [WR-1065] | can be safely administered | – | – | – | – | – | no systemic side-effects are observed | well-tolerated | five to fifteen | 3.7-19.9 ng/10^5 cells
